Assay results: US20260034094A1, “COMPOSITIONS AND METHODS FOR INDUCING FERROPTOSIS” (Kojin Therapeutics, Inc., priority 2022, published 2026)
Where two headings read alike, the source gives them in different places. Blank lines part the entries; values can stand above or below the compound they belong to.

Key:
cancer cells = assay: Cell line profiling with a ferroptosis-inducing agent with and without a rescue agent (CellTiter-Glo); type: cell-based, human; conditions: for fractional viability of cancer cells with fer-1 co-treatment: +1.5 μM fer-1
Protocol: Cell viability assays are performed by seeding 1,000 cells per well (30 μl volume) in opaque white 384-well plates (Corning). Cells are allowed to adhere for 24 h, after which they are exposed to compounds for 72 hours. DMSO stock solutions of compounds are added to cells using a CyBio Well Vario liquid dispenser (Analytik Jena AG). Cellular ATP levels are measured using CellTiter-Glo (Promega) as a surrogate for viability. Rescue assays are performed using rescue agents-ferrostatin-1 (fer-1, 1.5 μM), liproxstatin-1 (lip-1, 1 μM), deferoxamine (DFO, 50 μM), and other ferroptosis inhibitors added to cells at the time of addition to assay plates. Dose-response curves for BSO and RSL3 are shown in FIG. 4 with and without anti-ferroptosis rescue agent treatment (indicated as no treatment or +1.5 μM fer-1).

solid tumor animal model = assay: Microdosing tumors with ferroptosis-inducing agents (implantable drug delivery system, cleaved caspase-3 / H&E staining); type: in vivo, C57BL6/J mice; conditions: for tumor response (cleaved caspase-3 staining: cell death, white blood cell recruitment): local sustained administration, 1-10 μM at the tumor site, 24 hours
Protocol: For the allograft study, cancer cell line-derived tumor cells were injected into the flanks of male C57BL6/J mice. Assays were initiated when the tumor diameter was approximately 6-7 mm.
Microdose drug delivery was performed for the assay described herein. The compounds in Table 22 were packed into device reservoirs using a tapered metal needle. Reservoirs were loaded for initial release of liproxstatin-1 (where included) followed by a 4-6 h delayed release of ferroptosis inducers. Devices were prepared for dose administration into mouse tumors. Devices delivered the ferroptosis inducing agent for 24-72 hours in the tissue. The tumor was then excised, and the tissue was snap frozen with liquid nitrogen. Tissue was sectioned using a standard cryotome, and tissue slices of 20 μm in thickness were collected from each reservoir for analysis by immunoassays, transcriptomics, and metabolomic assays.
A drug delivery system was applied to a: solid tumor animal model. Animals were administered (1) L-BSO or (2) L-BSO+liproxstatin-1 (lip-1) as a ferroptosis-rescue agent. Drugs were loaded into an implantable drug delivery system to achieve concentrations of 1-10 μM for both BSO+lip-1 at the tumor site. After 24 hours, tumors were removed and stained for cleaved caspase-3 to indicate cell death in the tumor (FIG. 2A). […] Therefore, ferroptosis can be induced by both local and systemic administration of BSO.
A drug delivery system was applied to a: solid tumor animal model. Animals were administered (1) ML-210 or (2) ML-210+liproxstatin-1 (lip-1), as a ferroptosis rescue agent. Drugs were loaded into an implantable drug delivery system to achieve concentrations of 1-10 μM for both ML-210 and ML-210+liproxstatin-1 (lip-1) at the tumor site. After 24 hours, tumors were removed and stained for cleaved caspase-3.
To achieve therapeutic doses of RSL3 in vivo, a drug delivery system was applied to a: solid tumor animal model. Animals were administered (1) RSL3 or (2) RSL3+liproxstatin (lip-1) as a ferroptosis rescue agent. Drugs were loaded into an implantable drug delivery system to achieve concentrations of 1-10 μM for both RSL-3 and RSL3 and lip-1 co-administration at the tumor site. After 24 hours of sustained administration, tumors were removed and stained for cleaved caspase-3 (FIG. 5A). Dashed lines indicate region of drug exposure.

human recombinant GCL = human recombinant GCL (Homo sapiens (Human), UniProt P48506); assay: GCL enzyme profiling assay (ADP-Glo luminescence); type: biochemical; conditions: read-out: GCL IC50
human recombinant GCL, sequence (P48506 whole entry): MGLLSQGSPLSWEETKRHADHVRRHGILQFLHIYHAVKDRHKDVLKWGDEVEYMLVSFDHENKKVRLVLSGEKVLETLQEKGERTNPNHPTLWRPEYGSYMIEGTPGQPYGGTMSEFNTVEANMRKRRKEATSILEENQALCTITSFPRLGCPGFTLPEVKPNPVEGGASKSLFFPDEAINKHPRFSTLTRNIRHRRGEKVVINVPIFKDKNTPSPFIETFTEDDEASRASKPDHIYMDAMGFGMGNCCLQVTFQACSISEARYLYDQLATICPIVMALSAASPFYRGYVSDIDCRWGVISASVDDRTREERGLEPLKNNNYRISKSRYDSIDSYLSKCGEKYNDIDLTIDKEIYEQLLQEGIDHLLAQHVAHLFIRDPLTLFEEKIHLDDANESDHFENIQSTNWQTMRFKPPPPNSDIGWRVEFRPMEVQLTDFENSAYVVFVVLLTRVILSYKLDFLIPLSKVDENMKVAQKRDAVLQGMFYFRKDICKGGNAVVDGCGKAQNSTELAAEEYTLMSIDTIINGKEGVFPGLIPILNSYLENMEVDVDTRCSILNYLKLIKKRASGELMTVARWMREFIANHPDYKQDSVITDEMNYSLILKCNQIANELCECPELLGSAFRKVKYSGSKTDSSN
In short: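 IC50 fitted by four-parameter logistic to luminescent ADP formation (ADP-Glo). Reaction at room temperature in HEPES pH 7.5 with 30 mM MgCl2, 0.2% F-127, 1% DMSO; 5 nM GCL and 0.6 mM ATP preincubated 1 h before adding 1 mM glutamate plus 1.2 mM α-aminobutyrate for 2 h.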

RKN cells = assay: RKN cell profiling assay (cell viability, CellTiter-Glo); type: cell-based; conditions: read-out: Cell Killing EC50
In short: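 Viability read by CellTiter-Glo luminescence after 96 h compound exposure (0.5% DMSO final) of cells plated at 1,000/well in 10% FBS F-12 and allowed 24 h attachment. Four-parameter fits gave EC50; rescue arms used ferrostatin-1, 1.5 μM, present from seeding.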

Compound: CCCCS(=N)(=O)CC[C@H](N)C(=O)O (some centres unmarked) [BSO, buthionine sulfoximine]
- fractional viability of cancer cells with fer-1 co-treatment (cancer cells): not observed
- fractional viability of tumor (solid tumor animal model; compared with BSO+fer-1 treated sections of the tumor): significant reductions in fractional viability
- tumor response (cleaved caspase-3 staining: cell death, white blood cell recruitment) (solid tumor animal model): recruitment of white blood cells to the tumor indicating immune cell recruitment and cell death at the tumor site

Compound: CCOC(=O)c1ccc(NC2CCCCC2)c(N)c1 [Ferrostatin-1, ferrostatin-1]
- rescue from cell death (cancer cells; RSL3 and BSO treated tumors in vivo, 1.5 μM fer-1): prevents cell death

Compound: COC(=O)c1ccc([C@H]2c3[nH]c4ccccc4c3C[C@H](C(=O)OC)N2C(=O)CCl)cc1 [RSL3, (1S,3R)-RSL3]
- fractional viability of cancer cells with fer-1 co-treatment (cancer cells): reduction in the fractional viability of cancer cells
- ferroptosis induction (cancer cells; dose-response, with and without 1.5 μM fer-1): robust inducer of ferroptosis
- tumor response (cleaved caspase-3 staining: cell death, white blood cell recruitment) (solid tumor animal model): White blood cell recruitment and cell death were prominent

Compound: Cc1onc(C(=O)N2CCN(C(c3ccc(Cl)cc3)c3ccc(Cl)cc3)CC2)c1[N+](=O)[O-] [ML-210]
- tumor response (cleaved caspase-3 staining: cell death, white blood cell recruitment) (solid tumor animal model): recruitment of white blood cells to the tumor indicating immune cell recruitment and cell death at the tumor site

- IC50 (human recombinant GCL; human recombinant GCL, ADP-Glo): ≤ 20 µM
Compound: COc1ccc(-c2ccc(C3(CCS(=N)(=O)CC[C@H](N)C(=O)O)CCC3)cc2)c(Cl)c1 (some centres unmarked) [Compound 400]
- EC50 (RKN cells; cell viability): < 1000 µM

- IC50 (human recombinant GCL; human recombinant GCL 5 nM, 1 h preincubation with ATP): ≤ 20 µM
Compound: N=S(=O)(CCc1ccc(Cl)cc1)CC[C@H](N)C(=O)O (stereo partly drawn) [Compound 1, (2S)-2-amino-4-(2-(4-chlorophenyl)ethylsulfonimidoyl)butanoic acid]
- EC50 (RKN cells; 96 h, 96 h exposure): ≥ 1000 µM

- IC50 (human recombinant GCL; human recombinant GCL, ADP-Glo): 20 to 2000 µM
Compound: N=S(=O)(CC[C@H](N)C(=O)O)CCC1(O)CCCCC1 (some centres unmarked) [Compound 297]
- EC50 (RKN cells; cell viability): ≥ 1000 µM
